Test system: male ddy strain mouse
Assay: Pharmacological test of antipruritic action using mice (Compound 48/80-induced scratching)
Conditions: for Number of times scratching occurred (mean ± standard error): counted for 30 minutes after Compound 48/80 100 μg/body s.c., oxybuprocaine in saline 10 mg/kg dorsal neck, cyproheptadine 1 mg/kg intraperitoneally, n=6

CCCCOc1cc(C(=O)OCCN(CC)CC)ccc1N [oxybuprocaine, Oxybuprocaine]
Antipruritic effect in words (suppression of scratching behaviors) (compared to saline control group and cyproheptadine group): suppressed scratching behaviors strongly | Number of times scratching occurred (mean ± standard error): 45.8 ± 18.9

CN1CCC(=C2c3ccccc3C=Cc3ccccc32)CC1 [cyproheptadine]
Number of times scratching occurred (mean ± standard error): 76.7 ± 21.3

Source: patent US20110124727A1, “Oxybuprocaine-Containing Analgesic/Antipruritic External Preparation” (Teikoku Seiyaku Co., LTD, priority 2008, published 2011)
